Results reported in patent US20120083522A1, “MODULATION OF INFLAMMATORY RESPONSES BY FACTOR XI” (Isis Pharmaceuitcals, inc., priority 2009, published 2012).
In the oligonucleotide strings, read from the 5' end, every base follows the letter of its sugar. An asterisk marks phosphorothioate; unmarked linkages are phosphodiester. Other units and linkages are bracketed, terminal groups are in braces. A string of capitals states the bases alone. e = 2'-O-(2-methoxyethyl) (MOE); [5mC] = 5-methylcytosine; d = 2'-deoxy (DNA)

Tests used:
Factor XI mRNA = experiment: Cynomolgus monkeys, 25 mg/kg: liver Factor XI RNA analysis (Example 30); type: in vivo; conditions: for Factor XI mRNA in liver (in words): cynomolgus monkeys, day 55, in comparison to the PBS control; for % inhibition of Factor XI mRNA in liver relative to the PBS control: 25 mg/kg s.c., day 55
Description: (§1) Groups, each consisting of two male and two female monkeys, were injected subcutaneously with 25 mg/kg of ISIS 416850, ISIS 449709, ISIS 445522, ISIS 449710, ISIS 449707, ISIS 449711, ISIS 449708, 416858 and ISIS 445531. Antisense oligonucleotide was administered to the monkeys at 25 mg/kg three times per week for week 1 and 25 mg/kg twice per week for weeks 2 to 8. A control group, consisting of two male and two female monkeys was injected subcutaneously with PBS according to the same dosing regimen. Body weights were taken 14 days and 7 days before the start of treatment and were then measured weekly throughout the treatment period. Blood samples were collected 14 days and 5 days before the start of treatment and subsequently several times during the dosing regimen for measurement of various hematologic factors. On day 55, the monkeys were euthanized by exsanguination while under deep anesthesia, and organs harvested for further analysis.
On day 55, RNA was extracted from liver tissue for real-time PCR analysis of Factor XI using primer probe set LTS00301. Results are presented as percent inhibition of Factor XI, relative to PBS control.

[1] = tested on: IL-1β, IL-6, IFN-γ, TNF-α, IL-8, MIP-1α, MCP-1, MIP-10, RANTES; experiment: Cynomolgus monkeys: cytokine and chemokine assays (Example 30); type: in vivo
Description: as §1
Blood samples obtained from all monkey groups were sent to Pierce Biotechnology (Woburn, Mass.) for measurements of chemokine and cytokine levels. Levels of IL-1β, IL-6, IFN-γ, and TNF-α were measured using the respective primate antibodies and levels of IL-8, MIP-1α, MCP-1, MIP-10 and RANTES were measured using the respective cross-reacting human antibodies. Measurements were taken 14 days before the start of treatment and on day 55, when the monkeys were euthanized.

Factor XI protein = experiment: Cynomolgus monkeys: plasma Factor XI protein ELISA (Example 30); type: in vivo; conditions: for Inhibition of Factor XI protein relative to the PBS control: 25 mg/kg s.c., plasma ELISA
Description: as §1
Plasma samples from all monkey groups taken on different days were analyzed by a sandwich-style ELISA assay (Affinity Biologicals Inc.) using an affinity-purified polyclonal anti-Factor XI antibody as the capture antibody and a peroxidase-conjugated polyclonal anti-Factor XI antibody as the detecting antibody. Monkey plasma was diluted 1:50 for the assay. Peroxidase activity was expressed by incubation with the substrate o-phenylenediamine. The color produced was quantified using a microplate reader at 490 nm and was considered to be proportional to the concentration of Factor XI in the samples.
The results are presented in Table 148, expressed as percentage reduction relative to that of the PBS control.

human Factor XI mRNA = experiment: Dose-dependent inhibition and IC50 in HepG2 cells, microwalk gapmers, electroporation (Example 16); type: cell-based
Description: These gapmers were tested at various doses in HepG2 cells. Cells were plated at a density of 20,000 cells per well and transfected using electroporation with 375 nM, 750 nM, 1,500 nM, 3,000 nM, 6,000 nM and 12,000 nM concentrations of antisense oligonucleotide, as specified in Table 54. After a treatment period of approximately 16 hours, RNA was isolated from the cells and Factor XI mRNA levels were measured by quantitative real-time PCR. Human Factor XI primer probe set RTS 2966 was used to measure mRNA levels. Factor XI mRNA levels were adjusted according to total RNA content, as measured by RIBOGREEN. Results are presented as percent inhibition of Factor XI, relative to untreated control cells.
ISIS 416850, ISIS 416858, ISIS 445522, and ISIS 445531 (see Table 52 above) were re-tested in vitro along with the microwalk gapmers under the same conditions described above.
The chimeric antisense oligonucleotides in Table 53 were designed as 3-8-3 MOE, 4-8-4 MOE, 2-10-2 MOE, 3-10-3 MOE, or 4-10-4 MOE gapmers. The 3-8-3 gapmer is 14 nucleotides in length, wherein the central gap segment is comprised of eight 2′-deoxynucleotides and is flanked on both sides (in the 5′ and 3′ directions) by wings comprising three nucleotides each. The 4-8-4 gapmer is 16 nucleotides in length, wherein the central gap segment is comprised of eight 2′-deoxynucleotides and is flanked on both sides (in the 5′ and 3′ directions) by wings comprising four nucleotides each. The 2-10-2 gapmer is 14 nucleotides in length, wherein the central gap segment is comprised of ten 2′-deoxynucleotides and is flanked on both sides (in the 5′ and 3′ directions) by wings comprising two nucleotides each. The 3-10-3 gapmer is 16 nucleotides in length, wherein the central gap segment is comprised of ten 2′-deoxynucleotides and is flanked on both sides (in the 5′ and 3′ directions) by wings comprising three nucleotides each. The 4-10-4 gapmer is 18 nucleotides in length, wherein the central gap segment is comprised of ten 2′-deoxynucleotides and is flanked on both sides (in the 5′ and 3′ directions) by wings comprising four nucleotides each. For each of the motifs (3-8-3, 4-8-4, 2-10-2, 3-10-3, and 4-10-4), each nucleotide in the 5′ wing segment and each nucleotide in the 3′ wing segment has a 2′-MOE modification. The internucleoside linkages throughout each gapmer are phosphorothioate (P═S) linkages. All cytidine residues throughout each gapmer are 5-methylcytidines. “Human Target start site” indicates the 5′-most nucleotide to which the gapmer is targeted in the human sequence. “Human Target stop site” indicates the 3′-most nucleotide to which the gapmer is targeted in the human sequence. Each gapmer listed in Table 53 is targeted to SEQ ID NO: 1 (GENBANK Accession No. NM_000128.3). Each gapmer is Table 53 is also fully cross-reactive with the rhesus monkey Factor XI gene sequence, designated herein as SEQ ID NO: 274 (exons 1-15 GENBANK Accession No. NW—001118167.1). ‘Rhesus monkey start site’ indicates the 5′-most nucleotide to which the gapmer is targeted in the rhesus monkey sequence. ‘Rhesus monkey stop site’ indicates the 3′-most nucleotide to which the gapmer is targeted to the rhesus monkey sequence.
The first two listed gapmers in Table 54 are the original gapmers (ISIS 416850 and ISIS 416858) from which the remaining gapmers were designed via microwalk and are designated by an asterisk.

[2] = day −14 (before start of treatment)

Substance	Factor XI mRNA in liver (in words) (Factor XI mRNA)	IL-1β level ([1]; 25 mg/kg s.c., day 55) [pg/mL]	MIP-1β level ([1]; 25 mg/kg s.c., day 55) [pg/mL]	IL-1β level [1, 2] [pg/mL]	MIP-1β level [1, 2] [pg/mL]	Inhibition of Factor XI protein relative to the PBS control (Factor XI protein; Day 10) [%]	Inhibition of Factor XI protein relative to the PBS control (Factor XI protein; Day 17) [%]	Inhibition of Factor XI protein relative to the PBS control (Factor XI protein; Day 24) [%]	Inhibition of Factor XI protein relative to the PBS control (Factor XI protein; Day 31) [%]	Inhibition of Factor XI protein relative to the PBS control (Factor XI protein; Day 38) [%]	Inhibition of Factor XI protein relative to the PBS control (Factor XI protein; Day 45) [%]	Inhibition of Factor XI protein relative to the PBS control (Factor XI protein; Day 52) [%]	Inhibition of Factor XI protein relative to the PBS control (Factor XI protein; Day 55) [%]	Inhibition of Factor XI protein relative to the PBS control (Factor XI protein; Day −5) [%]	Inhibition of Factor XI protein relative to the PBS control (Factor XI protein; Day −14) [%]	percent inhibition of Factor XI mRNA (human Factor XI mRNA; electroporation, 375 nM) [%]	percent inhibition of Factor XI mRNA (human Factor XI mRNA; electroporation, 750 nM) [%]	percent inhibition of Factor XI mRNA (human Factor XI mRNA; electroporation, 1,500 nM) [%]	percent inhibition of Factor XI mRNA (human Factor XI mRNA; electroporation, 3,000 nM) [%]	percent inhibition of Factor XI mRNA (human Factor XI mRNA; electroporation, 6,000 nM) [%]	also measured
ISIS 449708: microwalk gapmer of Table 53 (antisense eA*e[5mC]*eA*dG*dT*dT*dT*d[5mC]*dT*dG*dG*e[5mC]*eA*eG)	significant reduction of Factor XI mRNA	131	128	35	19	–	–	–	–	–	–	–	–	–	–	–	–	–	–	–	–
ISIS 449710: microwalk gapmer of Table 53 (antisense e[5mC]*eA*e[5mC]*dA*dG*dT*dT*dT*d[5mC]*dT*dG*dG*d[5mC]*eA*eG*eG)	significant reduction of Factor XI mRNA	286	53	271	18	–	–	–	–	–	–	–	–	–	–	–	–	–	–	–	–
ISIS 449707: microwalk gapmer of Table 53 (antisense e[5mC]*eA*e[5mC]*eA*dG*dT*dT*dT*d[5mC]*dT*dG*dG*e[5mC]*eA*eG*eG)	significant reduction of Factor XI mRNA	97	49	115	13	–	–	–	–	–	–	–	–	–	–	–	–	–	–	–	–
ISIS 449709: microwalk gapmer of Table 53 (antisense eG*e[5mC]*eA*e[5mC]*dA*dG*dT*dT*dT*d[5mC]*dT*dG*dG*d[5mC]*eA*eG*eG*e[5mC])	significant reduction of Factor XI mRNA	181	47	137	14	–	–	–	–	–	–	–	–	–	–	–	–	–	–	–	Factor XI protein levels (in words) (Factor XI protein; cynomolgus monkeys, Example 30): time-dependent decrease in protein levels
449711 (antisense eA*e[5mC]*dA*dG*dT*dT*dT*d[5mC]*dT*dG*dG*d[5mC]*eA*eG) [compound 449711]	–	–	–	–	–	5	3	6	9	2	4	3	5	1	0	6	14	1	7	32	percent inhibition of Factor XI mRNA (human Factor XI mRNA; electroporation, 12,000 nM): 52%; % inhibition of Factor XI mRNA in liver relative to the PBS control (Factor XI mRNA): 0%
449708 (antisense eA*e[5mC]*eA*dG*dT*dT*dT*d[5mC]*dT*dG*dG*e[5mC]*eA*eG) [compound 449708]	–	–	–	–	–	7	15	3	14	9	2	6	6	0	1	0	0	22	33	61	percent inhibition of Factor XI mRNA (human Factor XI mRNA; electroporation, 12,000 nM): 85%; % inhibition of Factor XI mRNA in liver relative to the PBS control (Factor XI mRNA): 46%
